From PubChem BioAssay AID330 (DTP/NCI, 2004)
Where “and” joins values, the source holds several entries; their conditions need not be identical. Identical values can stand only once. Inconclusive results and toxic doses are left out. The calls were made as follows: active = survival T/C of 150% or more; inactive = T/C below 125% in these data.

Tested on: P388 leukemia ip, CD2F1 mice, survival T/C
Assay: NCI In Vivo Anticancer Drug Screen. Data for tumor model P388 Leukemia (intraperitoneal) in CD2F1 (CDF1) mice
Details: endpoint: median survival time, higher = longer survival
Method in brief: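 Mice carrying the transplanted tumor received test compound or vehicle. Survival was recorded in each group, and the value is the treated-group measurement divided by that of the vehicle-treated control group.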

Measured: T/C

O=C1OC(C(O)CO)C(O)=C1O (stereo not drawn)
inactive: dose: 0.05 mg/kg/injection, schedule: Q01DX005 (iv), vehicle: saline 108 % of control | dose: 0.05 mg/kg/injection, schedule: Q01DX009 (im), vehicle: saline 100 % of control | dose: 0.05 mg/kg/injection, schedule: Q01DX009 (oral), vehicle: saline 100 % of control | dose: 0.1 mg/kg/injection, schedule: Q01DX005 (iv), vehicle: saline 117 % of control | dose: 0.1 mg/kg/injection, schedule: Q01DX009 (im), vehicle: saline 100 % of control | dose: 0.1 mg/kg/injection, schedule: Q01DX009 (oral), vehicle: saline 100 % of control and 104 % of control | dose: 0.1 mg/kg/injection, schedule: Q01DX009 (sc), vehicle: saline 109 % of control | dose: 0.1 mg/kg/injection, schedule: Q08HX010 (ip), vehicle: saline 99 % of control | dose: 0.2 mg/kg/injection, schedule: Q01DX005 (iv), vehicle: saline 104 % of control | dose: 0.2 mg/kg/injection, schedule: Q01DX009 (im), vehicle: saline 100 % of control | dose: 0.2 mg/kg/injection, schedule: Q01DX009 (oral), vehicle: saline 100 % of control | dose: 0.2 mg/kg/injection, schedule: Q01DX009 (sc), vehicle: saline 109 % of control | dose: 0.2 mg/kg/injection, schedule: Q08HX010 (ip), vehicle: saline 99 % of control | dose: 0.39 mg/kg/injection, schedule: Q01DX005 (iv), vehicle: saline 113 % of control | dose: 0.39 mg/kg/injection, schedule: Q01DX009 (im), vehicle: saline 104 % of control | dose: 0.39 mg/kg/injection, schedule: Q01DX009 (oral), vehicle: saline 100 % of control and 108 % of control | dose: 0.39 mg/kg/injection, schedule: Q01DX009 (sc), vehicle: saline 100 % of control | dose: 0.4 mg/kg/injection, schedule: Q08HX010 (ip), vehicle: saline 99 % of control | dose: 0.78 mg/kg/injection, schedule: Q01DX005 (iv), vehicle: saline 104 % of control | dose: 0.78 mg/kg/injection, schedule: Q01DX009 (im), vehicle: saline 104 % of control | dose: 0.78 mg/kg/injection, schedule: Q01DX009 (oral), vehicle: saline 100 % of control and 95 % of control | dose: 0.78 mg/kg/injection, schedule: Q01DX009 (sc), vehicle: saline 109 % of control | dose: 1.56 mg/kg/injection, schedule: Q01DX005 (iv), vehicle: saline 104 % of control | dose: 1.56 mg/kg/injection, schedule: Q01DX009 (im), vehicle: saline 100 % of control | dose: 1.56 mg/kg/injection, schedule: Q01DX009 (oral), vehicle: saline 100 % of control and 104 % of control | dose: 1.56 mg/kg/injection, schedule: Q01DX009 (sc), vehicle: saline 100 % of control | dose: 3.13 mg/kg/injection, schedule: Q01DX005 (iv), vehicle: saline 104 % of control | dose: 3.13 mg/kg/injection, schedule: Q01DX009 (im), vehicle: saline 104 % of control | dose: 3.13 mg/kg/injection, schedule: Q01DX009 (oral), vehicle: saline 100 % of control and 116 % of control | dose: 3.13 mg/kg/injection, schedule: Q01DX009 (sc), vehicle: saline 100 % of control | dose: 6.25 mg/kg/injection, schedule: Q01DX005 (iv), vehicle: saline 104 % of control | dose: 6.25 mg/kg/injection, schedule: Q01DX009 (im), vehicle: saline 104 % of control | dose: 6.25 mg/kg/injection, schedule: Q01DX009 (oral), vehicle: saline 100 % of control and 112 % of control | dose: 6.25 mg/kg/injection, schedule: Q01DX009 (sc), vehicle: saline 95 % of control | dose: 10.0 mg/kg/injection, schedule: Q01DX005 (ip), vehicle: saline 100 % of control | dose: 12.5 mg/kg/injection, schedule: Q01DX005 (iv), vehicle: saline 104 % of control | dose: 12.5 mg/kg/injection, schedule: Q01DX009 (im), vehicle: saline 109 % of control | dose: 12.5 mg/kg/injection, schedule: Q01DX009 (oral), vehicle: saline 100 % of control and 108 % of control | dose: 12.5 mg/kg/injection, schedule: Q01DX009 (sc), vehicle: saline 104 % of control | dose: 20.0 mg/kg/injection, schedule: Q01DX005 (ip), vehicle: saline 100 % of control | dose: 25.0 mg/kg/injection, schedule: Q01DX005 (iv), vehicle: saline 104 % of control | dose: 25.0 mg/kg/injection, schedule: Q01DX009 (im), vehicle: saline 100 % of control | dose: 25.0 mg/kg/injection, schedule: Q01DX009 (oral), vehicle: saline 100 % of control and 104 % of control | dose: 25.0 mg/kg/injection, schedule: Q01DX009 (sc), vehicle: saline 100 % of control | dose: 40.0 mg/kg/injection, schedule: Q01DX005 (ip), vehicle: saline 103 % of control | dose: 50.0 mg/kg/injection, schedule: Q01DX005 (iv), vehicle: saline 117 % of control | dose: 50.0 mg/kg/injection, schedule: Q01DX009 (im), vehicle: saline 109 % of control | dose: 50.0 mg/kg/injection, schedule: Q01DX009 (oral), vehicle: saline 100 % of control and 108 % of control | dose: 50.0 mg/kg/injection, schedule: Q01DX009 (sc), vehicle: saline 100 % of control | dose: 60.0 mg/kg/injection, schedule: Q01DX005 (ip), vehicle: saline 100 % of control | dose: 100.0 mg/kg/injection, schedule: Q01DX005 (iv), vehicle: saline 100 % of control | dose: 100.0 mg/kg/injection, schedule: Q01DX009 (im), vehicle: saline 104 % of control | dose: 100.0 mg/kg/injection, schedule: Q01DX009 (oral), vehicle: saline 100 % of control | dose: 100.0 mg/kg/injection, schedule: Q01DX009 (sc), vehicle: saline 100 % of control | dose: 120.0 mg/kg/injection, schedule: Q01DX005 (ip), vehicle: saline 102 % of control | dose: 200.0 mg/kg/injection, schedule: Q01DX005 (iv), vehicle: saline 104 % of control | dose: 200.0 mg/kg/injection, schedule: Q01DX009 (im), vehicle: saline 104 % of control | dose: 200.0 mg/kg/injection, schedule: Q01DX009 (oral), vehicle: saline 100 % of control and 104 % of control | dose: 200.0 mg/kg/injection, schedule: Q01DX009 (sc), vehicle: saline 90 % of control | dose: 250.0 mg/kg/injection, schedule: Q01DX005 (ip), vehicle: saline 86 % of control | dose: 300.0 mg/kg/injection, schedule: Q08HX010 (ip), vehicle: saline 99 % of control | dose: 400.0 mg/kg/injection, schedule: Q01DX005 (iv), vehicle: saline 100 % of control | dose: 400.0 mg/kg/injection, schedule: Q01DX009 (im), vehicle: saline 100 % of control | dose: 400.0 mg/kg/injection, schedule: Q01DX009 (ip), vehicle: saline 110 % of control and 77 % of control | dose: 400.0 mg/kg/injection, schedule: Q01DX009 (oral), vehicle: saline 108 % of control and 95 % of control | dose: 400.0 mg/kg/injection, schedule: Q01DX009 (sc), vehicle: saline 104 % of control | dose: 500.0 mg/kg/injection, schedule: Q01DX005 (ip), vehicle: saline 86 % of control | dose: 600.0 mg/kg/injection, schedule: Q08HX010 (ip), vehicle: saline 102 % of control and 94 % of control | dose: 800.0 mg/kg/injection, schedule: Q01DX009 (im), vehicle: saline 100 % of control | dose: 800.0 mg/kg/injection, schedule: Q01DX009 (ip), vehicle: saline 99 % of control and 94 % of control | dose: 800.0 mg/kg/injection, schedule: Q01DX009 (oral), vehicle: saline 100 % of control and 108 % of control | dose: 800.0 mg/kg/injection, schedule: Q01DX009 (sc), vehicle: saline 95 % of control | dose: 1000.0 mg/kg/injection, schedule: Q01DX005 (ip), vehicle: saline 87 % of control | dose: 1200.0 mg/kg/injection, schedule: Q01DX009 (ip), vehicle: saline 110 % of control | dose: 1200.0 mg/kg/injection, schedule: Q08HX010 (ip), vehicle: saline 101 % of control and 94 % of control | dose: 1600.0 mg/kg/injection, schedule: Q01DX009 (im), vehicle: saline 100 % of control | dose: 1600.0 mg/kg/injection, schedule: Q01DX009 (ip), vehicle: saline 102 % of control and 61 % of control | dose: 1600.0 mg/kg/injection, schedule: Q01DX009 (oral), vehicle: saline 100 % of control and 91 % of control | dose: 1600.0 mg/kg/injection, schedule: Q01DX009 (sc), vehicle: saline 104 % of control

COc1ccc2c(c1)OC(C)(C)C=C2
inactive: dose: 8.75 mg/kg/injection, schedule: Q01DX009 (ip), vehicle: saline with Tween-80 87 % of control | dose: 17.5 mg/kg/injection, schedule: Q01DX009 (ip), vehicle: saline with Tween-80 98 % of control | dose: 35.0 mg/kg/injection, schedule: Q01DX009 (ip), vehicle: saline with Tween-80 106 % of control | dose: 70.0 mg/kg/injection, schedule: Q01DX009 (ip), vehicle: saline with Tween-80 110 % of control
